The values that follow come from patent US20230270721A1, “INHIBITION OF BAX-MEDIATED CELL DEATH BY ELTROMBOPAG” (Albert Einstein College of Medicine, priority 2020, published 2023).

As usually defined, the IC50 is the point on the concentration scale where inhibition reaches its midpoint.

The target in experiment [1] is T1, BAX (Homo sapiens, UniProt Q07812).
T1 construct: Human full-length (1-192) wild-type BAX (Q07812); made in house; host or cells: E. coli BL21 (DE3) CodonPlus (DE3)-RIPL
Nature of the experiment: Competitive fluorescence polarization binding assay (FPA), BAX / FITC-BIM-SAHB. As to conditions: FITC-BIM-SAHB 25 nM. On the procedure:
Fluorescence polarization assays (FPA) were performed as previously described (Gavathiotis, E., et al. Nat Chem Biol 8, 639-645 (2012)). Direct binding isotherms of BIM-SAHB were measured by incubated FITC-BIM-SAHB (25 nM) with serial dilutions of full-length BAX alone or in the presence of 0.5 or 1 µM EO. Competition binding assays were performed by titrating ED into BAX (150 nM) and FITC-BIM-SAHB (25 nM). Measurements were taken at 10-minute intervals over 60 minutes on a TECAN F200 PRO microplate reader. Reported curves represent 10-minute time point. KD values and IC50 were determined using GraphPad Prism nonlinear fit four-parameter agonist or antagonist versus response with restraints for 100% and 0% bound calculated by the mP of saturated BAX + FITC-BIM-SAHB and FITC-BIM-SAHB alone.
To test this hypothesis, a competitive fluorescence polarization assay (FPA) (Gavathiotis, E., et al. Nat Chem Biol 8, 639-645 (2012)) based on the interaction between BAX and fluorescently-labeled stapled BIM-BH3 peptide (FITC-BIM-SAHB) was used (Gavathiotis, E., et al. Nature 455, 1076-1081 (2008)). […] The IC50 and KD are consistent with a competitive binding mechanism of EO displacing FITC-BIM-SAHB from the N-terminal trigger site of BAX.
Background: Polarisation of emitted light reports the rotation of a fluorescent probe.

In experiment [2] the target is T1, BAX. Description: Recombinant BAX TM (Tycho NT.6). The experiment is classed as binding. The settings on record: 1:10 BAX:EO. On the procedure:
Purified recombinant BAX ([…]) was combined with DMSO or EO (1:10 BAX:EO) and loaded into Tycho NT.6 (NanoTemper Technologies) capillaries. First derivative (330/350 nm) melting point curves were generated automatically using the Tycho NT.6 (NanoTemper Technologies). Data was exported and to GraphPad PRISM software for analysis and visualization.
To confirm direct engagement of BAX, Cellular Thermal Shift Assay (CETSA) was performed in BAK KO MEFs.

Experiment [3] concerns human IPSC cardiomyocytes. Description: Apoptosis detection (RealTime Glo) in doxorubicin-treated cardiomyocytes. The experiment is classed as cell-based. As to conditions: 5 µM Doxorubicin, 10 µM EO.
Another experiment deals with T2, BAX K21E (Homo sapiens, UniProt Q07812, K21E).
T2 construct: Human full-length (1-192) wild-type BAX (Q07812); made in house; host or cells: E. coli BL21 (DE3) CodonPlus (DE3)-RIPL
T2 sequence (Q07812 whole entry K21E): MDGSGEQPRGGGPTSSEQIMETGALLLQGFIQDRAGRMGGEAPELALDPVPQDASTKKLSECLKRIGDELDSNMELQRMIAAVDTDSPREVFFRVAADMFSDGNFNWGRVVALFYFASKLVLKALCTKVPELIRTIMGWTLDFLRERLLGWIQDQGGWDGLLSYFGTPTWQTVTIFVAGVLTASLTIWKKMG
Nature of the experiment: Liposomal permeabilization assay, trigger site mutant K21E. The experiment is classed as biochemical. As to conditions: 250 nM BAX and 5 nM tBID. On the procedure:
Lipids (Avanti Polar Lipids) at the following ratio, phosphatidylcholine 48%, phosphatidylinositol 10%, dioleoyl phosphatidylserine 10%, phosphatidylethanolamine, 28%, and tetraoleoyl cardiolipin 4%, were mixed in a total of 1 mg, dried and resuspended in 10 mM HEPES, pH 7, 200 mM KCI, and 5 mM MgCl2 with 12.5 mM 8-aminonaphthalene-1,3,6-trisulfonic acid (ANTS) dye and 45 mM p-xylene-bis-pyridinium bromide (DPX) quencher (Molecular Probes) using a water bath sonicator. Liposomes were formed by extrusion of the suspension using Avanti Mini-Extruder (Cat # 610000) with polycarbonate membranes of 0.1 µm pore size (Avanti Polar Lipids). […] ANTS/DPX release was quantified based on the increase in fluorescence intensity that occurs when the ANTS fluorophore is separated from the DPX quencher upon release from the liposomes into solution. Fluorescence (λex = 355 nm and λem = 520 nm) was measured at 1 minute intervals at room temperature (22-25° C.) indicated using a Tecan Infinite M1000 plate reader. In the case of heat activation, reactions were set up as described in the absence of tBID or BIM, and experiments were recorded at 42° C. The percentage release of ANTS/DPX at any given time point was calculated as percentage release=((F-F0)/(F100-F0))(100), where F0 and F100 are baseline and maximal fluorescence, respectively. […]

T1 sequence (Q07812 whole entry): as the sequence (Q07812 whole entry K21E) above, with E21K counted along it

As for `CC1=NN(c2ccc(C)c(C)c2)C(=O)/C1=N\Nc1cccc(-c2cccc(C(=O)O)c2)c1O` [EO, eltrombopag], the concentration for half-maximal inhibition (IC50) at BAX [1] (BAX 150 nM, 10-minute time point, read-out: half-maximal inhibition IC50, competition of FITC-BIM-SAHB) stood at 207 nM. On BAX [1] (direct binding titration of BAX, 0.5 or 1 µM EO), the “affinity of BAX for FITC-BIM-SAHB in the presence of EO” value is recorded as “decreased affinity”. The “change in TM of recombinant BAX” value at BAX [2] is reported as “comparable reduction in TM”. The “apoptosis (cell death) induced by doxorubicin” value in experiment [3] is listed as “capable of inhibiting apoptosis”. Besides, at BAX K21E, the “inhibition of liposomal release versus BAX WT” value is recorded as “not reduced inhibition”.
